Data reported in PubChem BioAssay AID1061 (NMMLSC, 2008).
Active and inactive are the calls of the source. No rule for the calls is given here.

Target: N-formyl peptide receptor 2 (Homo sapiens) (UniProt P25090)
Assay: FPR2 antagonism measured by calcium flux – cell-based, calcium response, secondary assay, SAR follow-up (AID 1061)
Settings: FPRL1-expressing cells, antagonist mode, at 100 µM, hits give high values

N-formyl peptide receptor 2 (Homo sapiens), sequence (P25090 whole entry, looked up): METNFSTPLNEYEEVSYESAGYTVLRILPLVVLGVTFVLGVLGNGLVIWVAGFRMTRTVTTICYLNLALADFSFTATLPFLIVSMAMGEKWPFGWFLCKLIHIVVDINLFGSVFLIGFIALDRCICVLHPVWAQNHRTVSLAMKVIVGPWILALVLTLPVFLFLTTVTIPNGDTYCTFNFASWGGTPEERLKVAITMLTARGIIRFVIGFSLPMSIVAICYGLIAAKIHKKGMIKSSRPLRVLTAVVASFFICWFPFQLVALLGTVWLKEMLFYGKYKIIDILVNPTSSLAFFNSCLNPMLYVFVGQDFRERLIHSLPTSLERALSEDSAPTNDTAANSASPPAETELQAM

Compound	inhibition
COc1ccc(-c2cn3cccnc3n2)cc1NC(=O)C(C)C	93%
COc1ccc(-c2cn3cccnc3n2)cc1NC(=O)C1CC1	79%

More lines, now with the values ahead:

inhibition	Compound
48% (inactive)	COc1ccc(-c2cc(C(F)(F)F)nc(N3CCN(Cc4ccccc4)CC3)n2)cc1OC
75%	COc1ccc(CC(=O)Nc2cc(-c3cn4cccnc4n3)ccc2OC)cc1
36% (inactive)	CCC(=O)Nc1cc(-c2cn3cccnc3n2)ccc1OC
